Assays:
[1] = test system: P493 cells; assay: Mitochondrial membrane potential by JC-1 flow cytometry; assay type: cell-based, human; conditions: 9 μM FX11 or/and FK866, 24 hours
From the text: The lipophilic cation dye (5,5′,6,6′-tetrachloro-1,1′,3,3′-tetraethylbenzimidazolcarbocyanine iodide, JC-1) (Invitrogen) was used to detect the loss of the mitochondrial membrane potential. The negative charge established by the intact mitochondrial membrane potential lets the lipophilic dye stain the mitochondria bright red which emits in channel 2 (FL2). When the mitochondrial membrane potential collapses, JC-1 remains in the cytoplasm in a green fluorescent monomeric emission in channel 1 (FL1). JC-1 reversibly changes its color from green to orange as membrane potentials increase (over values of 80-100 mV). 10^5 cells/ml were treated with 9 μM FX11 or/and FK866 for 24 hours. Stained cells were analyzed in FACScan flow cytometers (BD Bioscience).

[2] = test system: AMP kinase (AMPK); assay: Immunoblot of phospho-AMPK; assay type: cell-based, human; conditions: 20 hours of exposure
[3] = test system: P493 cells; assay: ATP levels, luciferin-luciferase-based assay; assay type: cell-based, human; conditions: 9 μM FX11 or 0.5 nM FK866, 20 hours
Description: P493 cells were treated with 9 μM FX11 or 0.5 nM FK866 for 20 hours and counted. ATP levels were determined by luciferin-luciferase-based assay (Promega) on aliquots containing equal number of cells according to standard protocol.

[4] = test system: P493 human lymphoma B cells; assay: Cell population growth, trypan blue live cell count; assay type: cell-based
Description: P493 human lymphoma B cells were maintained in RPMI 1640 with 10% fetal bovine serum (FBS) and 1% penicillin-streptomycin. P198 human pancreatic cancer cells; RCC4, RCC4-VHL human renal carcinoma cells; MCF-7 and MDA-MB-453 breast cancer cells were maintained in high glucose (4.5 mg/ml) DMEM with 10% FBS and 1% penicillin-streptomycin. Non-hypoxic cells (20% O2) were maintained at 37° C. in a 5% CO2, 95% in an air incubator. Hypoxic cells (1% O2) were maintained in a controlled atmosphere chamber (PLAS-LABS, Lansing, Mich.) with a gas mixture containing 1% O2, 5% CO2, and 94% N2 at 37° C. for the indicated time. Bright live cells were counted daily in a hemacytometer using trypan blue dye to exclude dead cells. All cells were grown at a concentration of 10^5 cells/ml. All drugs treatment began at day 0.
siRNAs targeting human LDHA (ON-TARGETplus SMARTpool) were purchased from Dharmacon Research Inc. Targeting sequences for LDHA were a pool of the following four target sequences: sequence 1, […]; sequence 2, […]; sequence 3, […]; sequence 4, […]. Accordingly, one of skill in the art would recognize the siRNA sequences corresponding to these targets. For P493 human lymphoma B cells, transfection of siRNAs was performed using an Amaxa Nucleotransfection device according to the manufacturer's instructions. Briefly, 2 μg siLDHA ON-TARGETplus SMARTpool or ON-TARGETplus Non-targeting Pool (Dharmacon Research Inc.) were transfected into 2×10^6 cells at 0 hours. […]. The remaining cells were harvested for immunoblot analysis. For P198 human pancreatic cancer cells, transfection of siRNAs was performed using X-tremeGENE siRNA Transfection Reagent (Roche) according to the manufacturer's instructions.

[5] = test system: P493 cells; assay: ROS measurement by DCFDA flow cytometry; assay type: cell-based, human
Description: The measurement of intracellular ROS production was measured by staining cells with 5-(and-6)-carboxy-2′,7′-dichlorodihydrofluorescein diacetate (carboxy-H2DCFDA; Molecular Probes) according to the manufacturer's instructions. 10^5 cells/ml were treated with 9 μM FX11 or FK866 for 24 hours. Stained cells were analyzed in FACScan flow cytometers (BD Bioscience).

[6] = test system: P493 human lymphoma B cells; assay: Human P493 B cell lymphoma xenograft; assay type: in vivo, SCID mice; conditions: treatment from 200 mm^3; daily IP 42 μg FX11 and/or 100 μg FK866; ten days
Description: The animal studies were performed according to the protocols approved by the Animal Care and Use Committee at Johns Hopkins University. In order to generate tumorigenesis study in xenograft model, 2.0×10^7 P493 human lymphoma B cells or 5×10^6 human pancreatic cancer cells were injected subcutaneously into male SCID mice (NCI) or athymic Hsd: RH-Foxn1nu mice (Harlan), respectively, as previously described (Feldmann et al., 2007; Gao et al., 2009; Gao et al., 2007). When the tumor volume reached 200 mm^3, groups of 5 mice were injected with control 2% DMSO or 42 μg FX11 and/or 100 μg FK866. The tumor volumes were measured using a digital caliper after 4, 7 and 10 days of treatment. Tumor volumes were calculated using the following formula: [length (mm)×width (mm)×width (mm)×0.52]. The entire experiment was repeated seven times.

[7] = Side effects, hematology and blood chemistry in treated animals
[8] = target: T1, LDHA (Homo sapiens, UniProt P00338); conditions: cited from earlier work
[9] = target: purified human liver LDHA (Homo sapiens, UniProt P00338); assay: Determination of Ki and enzyme kinetics of LDHA
Description: The reaction velocity of purified human LDHA or GAPDH was determined by a decrease or increase in absorbance at 340 nm of NADH, respectively. […] The GADPH activity was assessed using the protocol described in Worthington Enzyme Manual: http://www.worthington-biochem.com/GAPD/assay.html with varying concentrations of NAD^+. Ki values were determined from double-reciprocal plots by linear regression analysis using SigmaPlot Enzyme Kinetic software.

[10] = target: T1, LDHA; assay: Screen of 1200 FDA approved compounds for an inhibitor of LDHA; assay type: biochemical
From the text: Reduction of LDHA by siRNA induced oxidative stress and cell death. To determine whether a small molecule inhibitor of LDHA could be used to modulate tumor metabolism, 1200 FDA approved compounds were screened to identify an inhibitor of LDHA. […] As such, a series of compounds generated by Vander Jagt and coworkers, who were specifically interested in targeting malarial LDH (pLDH) (Deck et al., 1998; Yu et al., 2001) was screened. […]; 2,3-dihydroxy-6-methyl-7-(phenylmethyl)-4-propylnaphthalene-1-carboxylic acid, Pubchem ID: 10498042) and 11e (E; 2,3-dihydroxy-6-methyl-7-(methyl)-4-propylnaphthalene-1-carboxylic acid, Pubchem ID: 10265351). […]; Yu et al., 2001). […]

[11] = test system: P493 cells; assay: Annexin V / 7-AAD cell death assay; assay type: cell-based, human; conditions: NAC 20 mM at 24 hours post-transfection

In the case of O=C(/C=C/c1cccnc1)NCCCCC1CCN(C(=O)c2ccccc2)CC1 [FK866, reference compound], the mitochondrial membrane potential [1] is reported as “decreased”, the “AMP kinase (AMPK) activation” value [2] is reported as “activation” and the ATP levels [3] is reported as “decrease in ATP levels”. The “proliferation of P493 cells” value ([4]; single agent) was “diminished proliferation”, the ROS production ([5]; 9 μM FX11 or FK866, 24 hours) was “increased ROS production” and the “tumor growth of established P493 lymphoma xenografts” value [6] was “cytostatic outcome”. The “kidney (BUN, creatinine) or liver (aspartate aminotransferase, alanine aminotransferase, alkaline phosphatase) toxicity by blood chemistries” value ([7]; doses that affected tumor growth in vivo) was “did not reveal any evidence” and the “hematology (cytopenia)” value ([7]; single agent, five animals studied) was “mild thrombocytopenia”.

For CCCc1c(O)c(O)c(C(=O)O)c2cc(C)c(C)cc12 [E, 2,3-dihydroxy-6-methyl-7-(methyl)-4-propylnaphthalene-1-carboxylic acid, reference compound], the LDHA inhibitory activity [8] is listed as “lower inhibitory activity versus FX11”, the “tumor growth of established P493 lymphoma xenografts” value [6] is listed as “no detectable anti-tumor activity” and the Ki [9] is listed as greater than 90 µM. The “mode of inhibition of LDHA” value ([9]; NADH as substrate, Lineweaver-Burk plots) was “competitive inhibitors”.

In the case of CCCOc1ccccc1-c1nc2nn[nH]c2c(=O)[nH]1 [Zaprinast], the “LDHA inhibition in screen” value [10] is reported as “weak LDHA inhibitor”.

In the case of CC(=O)N[C@@H](CS)C(=O)O [NAC, N-acetylcysteine, reference compound], the “effect on proliferation of P493 cells treated with either FX11 or FK866” value ([4]; 20 mM NAC) is reported as “partially rescue”, the “effect on cell proliferation of siRNA-transfected cells” value ([4]; NAC 20 mM at 24 hours post-transfection) is reported as “partial rescue of cell proliferation” and the “effect on cell death of siRNA-transfected cells” value [11] is reported as “partially reduced cell death”. The “effect on ROS induced by LDHA siRNA” value ([5]; cells exposed to NAC) was “attenuated”.
